Experimental findings from PubChem BioAssay AID1259371 (The Scripps Research Institute Molecular Screening Center, 2018) are described below.

Calls of active or inactive are those of the source. No rule for the calls is given here.

For the experiment, the target named is Microphthalmia-associated transcription factor (Homo sapiens) (UniProt O75030). Briefly: MITF inhibitors, potency by titration, dose response, biochemical, AlphaScreen, human (AID 1259371). The following applies: AlphaScreen biochemical MITF assay, signal inhibition. In general terms: In Alpha technology, singlet oxygen from a donor bead excites a nearby acceptor bead.
Microphthalmia-associated transcription factor (Homo sapiens), sequence (O75030 whole entry, looked up): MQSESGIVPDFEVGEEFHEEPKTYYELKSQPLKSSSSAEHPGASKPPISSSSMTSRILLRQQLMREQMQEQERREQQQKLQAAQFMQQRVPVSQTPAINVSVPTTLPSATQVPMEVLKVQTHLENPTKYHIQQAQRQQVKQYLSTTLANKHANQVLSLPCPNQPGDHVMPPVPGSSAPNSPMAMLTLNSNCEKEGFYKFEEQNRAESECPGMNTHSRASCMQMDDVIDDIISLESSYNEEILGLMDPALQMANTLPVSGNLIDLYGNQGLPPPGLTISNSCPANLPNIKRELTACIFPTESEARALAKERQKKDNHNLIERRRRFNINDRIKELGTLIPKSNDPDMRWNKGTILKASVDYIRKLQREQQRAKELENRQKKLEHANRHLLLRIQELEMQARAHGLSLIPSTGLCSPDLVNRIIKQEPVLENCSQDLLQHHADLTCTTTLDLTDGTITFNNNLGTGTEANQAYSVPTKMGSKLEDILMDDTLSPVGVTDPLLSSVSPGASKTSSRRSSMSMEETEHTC
Regarding `O=C1N[C@@H](Cc2ccccc2)C(=O)N2CCN(C(=O)NC3CCCCC3)C[C@H]12`, the IC50 (as a rule, the concentration needed to halve the response being measured) was “inactive”.

In the case of `NC(=O)c1cncc(-c2cccs2)c1`, the IC50 was 321 nM. With `NC(=O)c1cc(NC(=O)COC(=O)COc2cccc(C(F)(F)F)c2)cc(C(N)=O)c1`, the IC50 entry is “inactive”.

Regarding `O=C(NCC(c1cccs1)S(=O)(=O)c1ccc(Cl)cc1)c1ccco1` (stereo not drawn), the IC50 result is “inactive”.

On to `c1ccc(COc2ccc(OCCCCn3ccnc3)cc2)cc1`, for which the IC50 is > 6480 nM (inactive). Consider `Cc1cc(N=Cc2ccc([N+](=O)[O-])o2)ccc1S(=O)(=O)O`, for which the IC50 result was “inactive”. As for `CN(CCc1ccccn1)Cc1ccc(F)cc1`, the IC50 result was “inactive”.

In the case of `Cc1[nH][nH]c(=O)c1C(c1ccc([N+](=O)[O-])o1)c1c(C)[nH][nH]c1=O`, the IC50 is > 6480 nM (inactive).

As for `CCCOc1ccc(N)cc1N`, the IC50 result was “inactive”. In the case of `Cc1cccc(N2CCN(C(=O)/C=C\C(=O)O)CC2)c1C` it was “inactive”.

As to `O=C1N[C@@H](COCc2ccccc2)C(=O)N2CCN(C(=O)NC3CCCCC3)C[C@H]12`, the IC50 result was “inactive”.

Turning to `CN1C(=O)[C@H]2CN(C(=O)NCc3ccccc3)CCN2C(=O)[C@@H]1Cc1ccccc1`, the IC50 result is “inactive”. In the case of `COc1ccc(C)cc1NS(=O)(=O)c1ccc2c(c1)CCC(=O)N2` it was “inactive”; in that of `CC(O)(CNCCN1CCOCC1)COc1ccc(Cl)cc1` (stereo not drawn), “inactive”; in that of `O=P(O)(O)C(O)(CCNC(=S)Nc1ccccc1)P(=O)(O)O`, “inactive”. As for `COc1ccc(CN2CCN(Cc3ccccc3OC)CC2)cc1`, the IC50 was > 7330 nM (inactive). Turning to `O=C(O)c1cc(-n2cccc2)ccc1Cl`, the IC50 was 268 nM. In the case of `Nc1cccc(N2C(=O)c3cc(S(=O)O)cc4c(N)c(S(=O)O)cc(c34)C2=O)c1` it was “inactive”; in that of `C[C@@H](OCc1ccccc1)[C@@H]1NC(=O)[C@H]2CN(C(=O)NCc3ccccc3)CCN2C1=O`, “inactive”.

Consider `CCOC(=O)Cc1[nH]nc2c1C1(C(=O)N(CC)c3ccccc31)C(C#N)=C(N)O2` (stereo not drawn), for which the IC50 is > 6480 nM (inactive). For `O=C(NCc1cccnc1)c1ccnc(-c2cccs2)c1`, the IC50 result was “inactive”.

In the case of `C[C@@H](O)[C@@H]1NC(=O)[C@H]2CN(C(=O)NCc3ccccc3)CCN2C1=O`, the IC50 was > 2160 nM (inactive). In the case of `Cc1ccc(N2C(=O)C3C(C2=O)C2(CO)C=CC3(C)O2)cc1[N+](=O)[O-]` (stereo not drawn) it was > 6480 nM (inactive); in that of `Cc1cc(O)c2c(c1)Cc1cccc(O)c1C2=O`, 474 nM; in that of `CN=C1SC(CC(=O)Nc2cccc(C(=O)O)c2)C(=O)N1C` (stereo not drawn), “inactive”. For the compound `CC(C)(C)OC(=O)N1C(C(=O)O)CSC1c1cc2c(cc1[N+](=O)[O-])OCO2` (stereo not drawn), the IC50 is 916 nM.

Turning to `O=C(NCc1cccnc1)c1cccc(-c2cccs2)c1`, the IC50 was > 6640 nM (inactive). In the case of `Cc1cc(OCCOCCN2CCNCC2)ccc1Cl` it was > 6480 nM (inactive).

In the case of `CN(C)C(=O)N1CCN(S(=O)(=O)c2cccc([N+](=O)[O-])c2)CC1`, the IC50 was > 6480 nM (inactive). For `CCOc1cccc(OCC)c2c(C)nc(C)c1-2`, the IC50 was 207 nM.

As to `COc1cc(-c2ccnc(N)n2)ccc1NC(=O)[C@H]1COc2ccccc2O1`, the IC50 entry is “inactive”. In the case of `O=C(CN1C(=O)NC2(CCCCCC2)C1=O)NC(=O)NCc1ccco1` it was “inactive”; in that of `O=C(NCCO)c1ccc2nc(-c3ccco3)c(-c3ccco3)nc2c1`, 396 nM. In the case of `CN(C)CCOCCOc1ccccc1-c1ccccc1` it was “inactive”; in that of `O=C(O)c1ccc(-n2cccc2)cc1Cl`, 626 nM; in that of `CC(Oc1ccc2c(C(F)(F)F)cc(=O)oc2c1)C(=O)NN` (stereo not drawn), “inactive”. As for `CN(CCOC(=O)/C=C/c1ccco1)Cc1ccccc1`, the IC50 was 48.3 nM. Turning to `O=S(=O)(c1ccccc1C(F)(F)F)N1CCC(c2nc3ccccc3[nH]2)CC1`, the IC50 was 470 nM.
